In patent US20200061047A1, “NEW USE OF RIFAMYCIN-QUINOLIZIDONE DUAL-ACTION MOLECULE” (TenNor Therapeutics Limited, priority 2017, published 2020):
Values after ≈ are worked out from the molar mass of the structure shown. Where two headings read alike, the source gives them in different places.

What was measured:
Format in all cases: cell-based
[1] = tested on: Enterobacter aerogenes ATCC 13048; experiment: MIC, agar dilution drug sensitivity test
[2] = tested on: Streptococcus parasanguinis MMX 5671; experiment: MIC, agar dilution drug sensitivity test
[3] = tested on: Peptostreptococcus prevotii ATCC 9321; experiment: MIC, agar dilution drug sensitivity test; settings: Anaerococcus prevotii, ATCC9321, Table 1
[4] = tested on: Streptococcus salivarius ATCC 25975; experiment: MIC, agar dilution drug sensitivity test
[5] = tested on: Serratia marcescens ATCC 43862; experiment: MIC, agar dilution drug sensitivity test
[6] = tested on: Eggerthella lenta ATCC 43055; experiment: MIC, agar dilution drug sensitivity test; settings: ATCC43055, Table 1
[7] = tested on: Haemophilus influenzae ATCC 49247; experiment: MIC, microscale broth dilution drug sensitivity test
Protocol: (§1) In this embodiment, compound I-rifamycin-quinolizidone dual-action molecule is used in a drug sensitivity test on pathogenic bacteria associated with hepatic encephalopathy, the pathogenic bacteria including the above ammonia-producing bacteria. Except that Haemophilus is tested using the microscale broth dilution method, all the other bacteria are tested using the agar dilution method consistent with that in the Guideline of the Clinical and Laboratory Standards Institute (CLSI; 1-3). All the other drug susceptibility tests are performed under anaerobic conditions except that some selective isolates are tested under both aerobic and anaerobic conditions. Control compounds include metronidazole, rifampicin, clindamycin (under anaerobic conditions) and ciprofloxacin (under aerobic and anaerobic conditions). The tested clinical isolates may be reference strains obtained from American Type Culture Collection, ATCC, Manassas, Va. After being received, the strains are respectively inoculated on appropriate agar plates and placed under optimized conditions for growth. The growing strains are cloned in the broth containing cryoprotectant to prepare bacterial suspensions, and the bacterial suspensions are subpackaged and then stored in freezing at −80° C. Before test, the frozen bacteria are inoculated into appropriate agar dishes and cultured for growth. Anaerobic bacteria grow for 48 hours at 35° C. in a Bactron II oxygen-free cabinet (Shel Lab, Cornelius, Oreg.) before test. Haemophilus Test Medium (HTM, Teknova, Hollister, Calif.; Art. No.: 895120) is used to perform drug sensitivity test on Hemophilus using the microscale broth dilution method under aerobic and anaerobic conditions. Preparation and storage of all the above broths are performed in accordance with CLSI (1-3).

[8] = tested on: Haemophilus parainfluenzae ATCC 49247; experiment: as above; settings: ATCC49247
Protocol: as §1

[9] = tested on: Bacteroides bifidum ATCC 1569; experiment: MIC, agar dilution drug sensitivity test; settings: ATCC1569, Table 1
[10] = tested on: Proteus vulgaris ATCC 1331; experiment: MIC, agar dilution drug sensitivity test
[11] = tested on: Bifidobacterium infantis subsp. Infantis ATCC 15702; experiment: MIC, agar dilution drug sensitivity test; settings: ATCC15702, Table 1
[12] = tested on: Clostridium difficile ATCC 700057; experiment: MIC, agar dilution drug sensitivity test; settings: Clostridioides difficile, ATCC700057
[13] = tested on: Bordetella avium ATCC 6945; experiment: MIC, agar dilution drug sensitivity test
[14] = tested on: Clostridium perfringens ATCC 13124; experiment: microbe, parasite or virus in culture; settings: ATCC13124
[15] = tested on: Streptococcus pneumoniae ATCC 49619; experiment: MIC, agar dilution drug sensitivity test
[16] = tested on: Fusobacterium necrophorum ATCC 25286; experiment: MIC, agar dilution drug sensitivity test; settings: ATCC25286, Table 1
[17] = tested on: Bacteroides vulgatus JMI 927011; experiment: MIC, agar dilution drug sensitivity test; settings: Phocaeicola vulgatus, JMI927011
[18] = tested on: Alcaligenes faecalis JMI 940880; experiment: MIC, agar dilution drug sensitivity test; settings: JMI940880, Aerobic
[19] = tested on: Staphylococcus saprophyticus JMI 2016_703; experiment: MIC, agar dilution drug sensitivity test; settings: Aerobic
[20] = tested on: Corynebacterium urealyticum JMI 2015_30; experiment: MIC, agar dilution drug sensitivity test; settings: Aerobic
[21] = tested on: Actinomyces naeslundii JMI 534283; experiment: MIC, agar dilution drug sensitivity test; settings: JMI534283, Aerobic
[22] = tested on: Klebsiella oxytoca JMI 933995; experiment: MIC, agar dilution drug sensitivity test; settings: JMI933995, Table 1
[23] = tested on: Morganella morganii MMX 6123; experiment: MIC, agar dilution drug sensitivity test; settings: MMX6123, Table 1
[24] = tested on: Salmonella spp ATCC 35987; experiment: MIC, agar dilution drug sensitivity test; settings: ATCC35987, Table 1
Protocol: In this embodiment, compound I-rifamycin-quinolizidone dual-action molecule is used in a drug sensitivity test on pathogenic bacteria associated with hepatic encephalopathy, the pathogenic bacteria including the above ammonia-producing bacteria. Except that Haemophilus is tested using the microscale broth dilution method, all the other bacteria are tested using the agar dilution method consistent with that in the Guideline of the Clinical and Laboratory Standards Institute (CLSI; 1-3). All the other drug susceptibility tests are performed under anaerobic conditions except that some selective isolates are tested under both aerobic and anaerobic conditions. Control compounds include metronidazole, rifampicin, clindamycin (under anaerobic conditions) and ciprofloxacin (under aerobic and anaerobic conditions).
The tested clinical isolates may be reference strains obtained from American Type Culture Collection, ATCC, Manassas, Va. After being received, the strains are respectively inoculated on appropriate agar plates and placed under optimized conditions for growth. The growing strains are cloned in the broth containing cryoprotectant to prepare bacterial suspensions, and the bacterial suspensions are subpackaged and then stored in freezing at −80° C. Before test, the frozen bacteria are inoculated into appropriate agar dishes and cultured for growth. Anaerobic bacteria grow for 48 hours at 35° C. in a Bactron II oxygen-free cabinet (Shel Lab, Cornelius, Oreg.) before test. […]
The Minimum Inhibitory Concentration (MIC) is determined using the agar dilution method.
The MIC values of all microorganisms except Haemophilus are determined using the agar dilution method in the CLSI (1-2). […] After culturing, the MIC is determined in accordance with the CLSI guideline (1-2).

[25] = tested on: Helicobacter pylori ATCC 700824; experiment: MIC, agar dilution drug sensitivity test; settings: ATCC700824, Table 1
[26] = tested on: Yersinia enterocolitica ATCC 23715; experiment: MIC, agar dilution drug sensitivity test; settings: ATCC23715, Table 1
[27] = tested on: Escherichia coli ATCC 25922; experiment: MIC, agar dilution drug sensitivity test; settings: ATCC25922, Table 1
[28] = tested on: Lactobacillus salivarius JMI 941623; experiment: MIC, agar dilution drug sensitivity test; settings: Ligilactobacillus salivarius, JMI941623, Table 1
[29] = tested on: Proteus vulgaris MMX 6454; experiment: MIC, agar dilution drug sensitivity test; settings: MMX6454, Table 1
[30] = tested on: Proteus mirabilis JMI 933599; experiment: MIC, agar dilution drug sensitivity test; settings: JMI933599, Table 1
[31] = ATCC49247, Haemophilus influenzae ATCC 49247, Aerobic
[32] = ATCC49247, Haemophilus influenzae ATCC 49247, Anaerobic

Work on `Cc1ncc([N+](=O)[O-])n1CCO` [Metronidazole, metronidazole] yielded an MIC ([1]; Enterobacter aerogenes ATCC 13048, Anaerobic) of over 256 µg/mL, an MIC ([1]; Klebsiella aerogenes, ATCC13048) of over 256 µg/mL and an MIC ([2]; Streptococcus parasanguinis MMX 5671, Anaerobic) of over 256 µg/mL. The MIC ([2]; Streptococcus parasanguinis, MMX5671) was over 256 µg/mL, the MIC [3] was 256 µg/mL (≈ 1500 µM) and the MIC ([4]; Streptococcus salivarius ATCC 25975, Anaerobic) was over 256 µg/mL. It also gave an MIC ([4]; Streptococcus salivarius, ATCC25975) of over 256 µg/mL, an MIC ([5]; Serratia marcescens ATCC 43862, Anaerobic) of over 256 µg/mL and an MIC ([5]; Serratia marcescens, ATCC43862) of over 256 µg/mL. For the same compound, the MIC [6] was 1 µg/mL (≈ 5.84 µM), the MIC [7, 31] was 64 µg/mL (≈ 374 µM) and the MIC [7, 32] was 64 µg/mL (≈ 374 µM). It also gave an MIC ([8]; Haemophilus parainfluenzae) of 128 µg/mL (≈ 748 µM), an MIC [9] of 8 µg/mL (≈ 46.7 µM) and an MIC ([10]; Proteus vulgaris ATCC 1331, Anaerobic) of over 256 µg/mL. For the same compound, the MIC ([10]; Proteus vulgaris, ATCC1331) was over 256 µg/mL, the MIC [11] was 16 µg/mL (≈ 93.5 µM) and the MIC [12] was 0.5 µg/mL (≈ 2.92 µM). For the same compound, the MIC ([13]; Bordetella avium ATCC 6945, Anaerobic) was over 256 µg/mL, the MIC ([13]; Bordetella avium, ATCC6945) was over 256 µg/mL and the MIC [14] was 2 µg/mL (≈ 11.7 µM). For the same compound, the MIC ([15]; ATCC49619, Streptococcus pneumoniae ATCC 49619, Aerobic) was over 256 µg/mL, the MIC ([15]; ATCC49619, Streptococcus pneumoniae ATCC 49619, Anaerobic) was 128 µg/mL (≈ 748 µM) and the MIC [16] was 0.12 µg/mL (≈ 0.701 µM).

For `CO[C@H]1/C=C/O[C@@]2(C)Oc3c(C)c(O)c4c(O)c(c(/C=N/N5CCN(C)CC5)c(O)c4c3C2=O)NC(=O)/C(C)=C\C=C\[C@H](C)[C@H](O)[C@@H](C)[C@@H](O)[C@@H](C)[C@H](OC(C)=O)[C@@H]1C` [Rifampicin, rifampicin], the MIC [17] was 0.06 µg/mL (≈ 0.0729 µM), the MIC [18] was 16 µg/mL (≈ 19.4 µM) and the MIC ([1]; Klebsiella aerogenes, ATCC13048, Enterobacter aerogenes ATCC 13048, Aerobic, read-out: MIC) was 64 µg/mL (≈ 77.8 µM). For the same compound, the MIC ([1]; Klebsiella aerogenes, ATCC13048, Enterobacter aerogenes ATCC 13048, Anaerobic, read-out: MIC) was 64 µg/mL (≈ 77.8 µM), the MIC ([2]; Streptococcus parasanguinis, MMX5671, Streptococcus parasanguinis MMX 5671, Aerobic, read-out: MIC) was 0.03 µg/mL (≈ 0.0365 µM) and the MIC ([2]; Streptococcus parasanguinis, MMX5671, Streptococcus parasanguinis MMX 5671, Anaerobic, read-out: MIC) was 16 µg/mL (≈ 19.4 µM). It also gave an MIC [19] of 1 µg/mL (≈ 1.22 µM), an MIC ([4]; Streptococcus salivarius, ATCC25975, Streptococcus salivarius ATCC 25975, Aerobic, read-out: MIC) of 0.03 µg/mL (≈ 0.0365 µM) and an MIC ([4]; Streptococcus salivarius, ATCC25975, Streptococcus salivarius ATCC 25975, Anaerobic, read-out: MIC) of 32 µg/mL (≈ 38.9 µM). The MIC ([5]; Serratia marcescens, ATCC43862, Serratia marcescens ATCC 43862, Aerobic, read-out: MIC) was 64 µg/mL (≈ 77.8 µM), the MIC ([5]; Serratia marcescens, ATCC43862, Serratia marcescens ATCC 43862, Anaerobic, read-out: MIC) was 64 µg/mL (≈ 77.8 µM) and the MIC [7, 31] was 0.25 to 1 µg/mL (≈ 0.304 to 1.22 µM). The MIC [7, 32] was 0.25 µg/mL (≈ 0.304 µM), the MIC ([8]; Haemophilus parainfluenzae ATCC 49247, Aerobic, read-out: MIC) was 0.5 µg/mL (≈ 0.608 µM) and the MIC [20] was 0.004 µg/mL (≈ 0.00486 µM). It also gave an MIC ([10]; Proteus vulgaris, ATCC1331, Proteus vulgaris ATCC 1331, Aerobic, read-out: MIC) of 16 µg/mL (≈ 19.4 µM), an MIC ([10]; Proteus vulgaris, ATCC1331, Proteus vulgaris ATCC 1331, Anaerobic, read-out: MIC) of 8 µg/mL (≈ 9.72 µM) and an MIC ([13]; Bordetella avium, ATCC6945, Bordetella avium ATCC 6945, Aerobic, read-out: MIC) of 16 µg/mL (≈ 19.4 µM). The MIC ([13]; Bordetella avium, ATCC6945, Bordetella avium ATCC 6945, Anaerobic, read-out: MIC) was 64 µg/mL (≈ 77.8 µM), the MIC ([15]; ATCC49619, Streptococcus pneumoniae ATCC 49619, Aerobic, read-out: MIC) was 0.03 µg/mL (≈ 0.0365 µM) and the MIC ([15]; ATCC49619, Streptococcus pneumoniae ATCC 49619, Anaerobic, read-out: MIC) was 0.12 µg/mL (≈ 0.146 µM). The MIC [21] was under 0.002 µg/mL.

Compound `CO[C@H]1/C=C/O[C@@]2(C)Oc3c(C)c(O)c4c(O)c(c5c(nc6cc(C)ccn65)c4c3C2=O)NC(=O)/C(C)=C\C=C\[C@H](C)[C@H](O)[C@@H](C)[C@@H](O)[C@@H](C)[C@H](OC(C)=O)[C@@H]1C` [Rifaximin, rifaximin] has an MIC [22] of 32 µg/mL (≈ 40.7 µM), an MIC [23] of 16 µg/mL (≈ 20.4 µM) and an MIC [24] of 16 µg/mL (≈ 20.4 µM). It also gave an MIC [3] of 0.03 µg/mL (≈ 0.0382 µM), an MIC [25] of 2 µg/mL (≈ 2.54 µM) and an MIC [6] of 0.12 µg/mL (≈ 0.153 µM). The MIC [26] was 8 µg/mL (≈ 10.2 µM), the MIC [27] was 8 µg/mL (≈ 10.2 µM) and the MIC [28] was 1 µg/mL (≈ 1.27 µM). For the same compound, the MIC [9] was 0.5 µg/mL (≈ 0.636 µM), the MIC [11] was 0.25 µg/mL (≈ 0.318 µM) and the MIC [12] was 0.004 µg/mL (≈ 0.00509 µM). For the same compound, the MIC [14] was 0.12 µg/mL (≈ 0.153 µM), the MIC [29] was 4 µg/mL (≈ 5.09 µM) and the MIC [30] was 8 µg/mL (≈ 10.2 µM). It also gave an MIC [16] of 16 µg/mL (≈ 20.4 µM).
